pKi: −log10 of the molar value.
Key:
D(1A) dopamine receptor = D(1A) dopamine receptor (Homo sapiens, UniProt P21728); assay: Displacement of [3H]SCH23390 from human dopamine D1 receptor
D(2) dopamine receptor = D(2) dopamine receptor (Homo sapiens, UniProt P14416); assay: Displacement of [3H]spiperone from human dopamine D2 receptor
D(4) dopamine receptor = biological target: T1, D(4) dopamine receptor (Homo sapiens, UniProt P21917); assay: Binding affinity to human dopamine D4 receptor by radioligand binding assay
T1 sequence (P21917 whole entry): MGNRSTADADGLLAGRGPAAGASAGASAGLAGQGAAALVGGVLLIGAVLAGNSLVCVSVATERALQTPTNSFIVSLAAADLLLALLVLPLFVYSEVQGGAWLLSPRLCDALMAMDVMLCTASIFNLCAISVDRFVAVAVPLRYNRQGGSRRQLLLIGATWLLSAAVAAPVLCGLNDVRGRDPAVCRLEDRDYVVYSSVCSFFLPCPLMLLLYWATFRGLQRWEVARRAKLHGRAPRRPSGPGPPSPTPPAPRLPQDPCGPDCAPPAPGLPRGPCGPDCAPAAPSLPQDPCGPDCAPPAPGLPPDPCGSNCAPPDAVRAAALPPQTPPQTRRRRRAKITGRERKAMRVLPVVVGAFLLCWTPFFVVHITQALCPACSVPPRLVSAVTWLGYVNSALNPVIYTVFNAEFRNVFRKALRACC

D(3) dopamine receptor = D(3) dopamine receptor (Homo sapiens, UniProt P35462); assay: Binding affinity to human dopamine D3 receptor by radioligand binding assay
D(1B) dopamine receptor = D(1B) dopamine receptor (Homo sapiens, UniProt P21918); assay: Binding affinity to human dopamine D5 receptor by radioligand binding assay
Homo sapiens = species on record: Homo sapiens; assay: Selectivity ratio of Ki for human dopamine D2 receptor to Ki for human dopamine D4 receptor

D(1A) dopamine receptor, sequence (P21728 whole entry): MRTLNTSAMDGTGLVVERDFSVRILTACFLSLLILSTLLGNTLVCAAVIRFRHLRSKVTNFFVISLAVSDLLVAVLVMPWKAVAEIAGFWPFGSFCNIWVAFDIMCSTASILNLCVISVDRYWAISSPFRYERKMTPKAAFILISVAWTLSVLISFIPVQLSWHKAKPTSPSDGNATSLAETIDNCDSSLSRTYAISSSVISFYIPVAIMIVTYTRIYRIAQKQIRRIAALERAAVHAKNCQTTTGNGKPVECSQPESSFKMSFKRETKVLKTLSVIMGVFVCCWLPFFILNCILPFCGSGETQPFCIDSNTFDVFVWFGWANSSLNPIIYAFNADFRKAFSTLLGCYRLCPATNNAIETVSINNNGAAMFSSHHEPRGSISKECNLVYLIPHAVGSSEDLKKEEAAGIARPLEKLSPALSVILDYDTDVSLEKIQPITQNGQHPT
D(3) dopamine receptor, sequence (P35462 whole entry): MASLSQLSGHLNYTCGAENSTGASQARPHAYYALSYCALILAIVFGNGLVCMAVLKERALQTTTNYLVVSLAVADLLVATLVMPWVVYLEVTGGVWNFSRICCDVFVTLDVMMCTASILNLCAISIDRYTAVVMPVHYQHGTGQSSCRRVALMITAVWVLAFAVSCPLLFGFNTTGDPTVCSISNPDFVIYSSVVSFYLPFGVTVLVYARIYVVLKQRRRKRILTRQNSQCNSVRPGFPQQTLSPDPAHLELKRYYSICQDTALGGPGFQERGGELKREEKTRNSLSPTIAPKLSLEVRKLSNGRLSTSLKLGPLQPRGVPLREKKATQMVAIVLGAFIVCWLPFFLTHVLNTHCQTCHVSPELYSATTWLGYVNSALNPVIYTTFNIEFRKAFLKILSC
D(2) dopamine receptor, sequence (P14416 whole entry): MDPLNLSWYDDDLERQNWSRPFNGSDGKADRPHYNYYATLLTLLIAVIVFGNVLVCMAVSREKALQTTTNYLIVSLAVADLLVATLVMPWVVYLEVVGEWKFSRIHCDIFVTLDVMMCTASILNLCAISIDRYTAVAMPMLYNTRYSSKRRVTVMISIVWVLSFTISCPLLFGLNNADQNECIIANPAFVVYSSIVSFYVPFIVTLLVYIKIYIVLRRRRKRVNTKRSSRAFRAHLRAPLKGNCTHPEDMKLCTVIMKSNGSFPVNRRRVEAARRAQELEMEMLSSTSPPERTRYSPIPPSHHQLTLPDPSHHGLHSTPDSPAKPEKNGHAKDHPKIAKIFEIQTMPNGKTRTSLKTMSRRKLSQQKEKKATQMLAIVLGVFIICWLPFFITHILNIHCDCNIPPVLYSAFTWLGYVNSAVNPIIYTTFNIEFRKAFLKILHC
D(1B) dopamine receptor, sequence (P21918 whole entry): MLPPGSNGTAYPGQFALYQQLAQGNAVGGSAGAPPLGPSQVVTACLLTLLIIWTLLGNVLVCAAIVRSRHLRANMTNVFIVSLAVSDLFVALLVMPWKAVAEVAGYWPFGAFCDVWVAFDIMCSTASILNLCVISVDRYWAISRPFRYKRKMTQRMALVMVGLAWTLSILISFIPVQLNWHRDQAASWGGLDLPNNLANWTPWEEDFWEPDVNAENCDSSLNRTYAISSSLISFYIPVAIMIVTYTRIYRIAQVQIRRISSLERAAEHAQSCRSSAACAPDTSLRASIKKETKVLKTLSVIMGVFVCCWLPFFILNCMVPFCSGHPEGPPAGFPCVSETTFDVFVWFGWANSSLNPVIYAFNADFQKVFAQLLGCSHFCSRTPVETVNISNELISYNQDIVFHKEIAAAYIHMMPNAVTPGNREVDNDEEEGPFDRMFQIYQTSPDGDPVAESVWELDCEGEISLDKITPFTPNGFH

Ratio Ki (Homo sapiens) | SMILES | pKi (D(1A) dopamine receptor) | pKi (D(2) dopamine receptor) | pKi (D(4) dopamine receptor) | pKi (D(3) dopamine receptor) | pKi (D(1B) dopamine receptor)
– | Clc1cccc(N2CCN(Cc3cccc4ccccc34)CC2)c1Cl | < 5.00 | 6.45 | 7.51 | 7.04 | < 5.00
– | CCOc1ccccc1N1CCN(Cc2cccc3ccccc23)CC1 | < 5.00 | 6.58 | 8.70 | 7.23 | < 5.00
– | Clc1cccc(N2CCN(Cc3cccnc3)CC2)c1Cl | < 5.00 | 6.49 | 8.36 | 7.39 | < 5.00
14 | CCOc1ccccc1N1CCN(Cc2cccs2)CC1 | < 5.00 | 6.79 | 8.41 | 6.95 | < 5.00
– | Clc1ccc(N2CCN(Cc3cc4ccccn4n3)CC2)cc1 | – | 5.49 | 8.51 | 5.30 | –
– | Clc1cccc(N2CCN(Cc3csc4ccccc34)CC2)c1Cl | < 5.00 | 6.42 | 7.65 | 7.28 | < 5.00
– | Clc1cccc(N2CCN(Cc3c[nH]c4ccccc34)CC2)c1Cl | < 5.00 | – | 8.21 | 6.91 | < 5.00
– | CCOc1ccccc1N1CCN(Cc2c[nH]c3ccccc23)CC1 | < 5.00 | 6.33 | 10.52 | 6.99 | < 5.00
– | CCOc1ccccc1N1CCN(Cc2cccnc2)CC1 | < 5.00 | 6.59 | 9.15 | 7.38 | < 5.00
– | CCOc1ccccc1N1CCN(Cc2csc3ccccc23)CC1 | < 5.00 | 6.66 | 8.35 | 7.35 | < 5.00
